In patent US20120208781A1, “AMINOGLYCOSIDE DOSING REGIMENS” (Achaogen, Inc., priority 2009, published 2012):
≈ marks a conversion by molar mass, not a printed value. Where “and” joins values, the source holds several entries; their conditions need not be identical. Identical values can stand only once. Like-named read-outs stand apart in the source and are kept apart here.

Columns and labels:
[1] = Urine concentration analysis / urinary recovery of Compound 1 in beagle dogs; assay type: in vivo; conditions: 10 mg/kg IV; for % of Cmpd 1 recovered in urine: 24 hours; for concentration at 6 h / concentration at 12 h / concentration at 24 h: male, beagle, dog, urine, iv, read-out: Cmpd 1 urine concentration
Method: Male CD-1 mice, Sprague Dawley rats, and beagle dogs were administered Compound 1 intravenously. Compound 1 was preformulated as a sterile isotonic solution of 10 mg/mL in PBS. Specifically, male CD-1 mice were administered a single bolus IV injection of the Compound at 10 mg/kg, via a bolus IV injection into the tail vein. Two blood samples per mouse were collected by retro-orbital puncture into tubes containing the anticoagulant K2EDTA prior to dosing and at 0.033, 0.083, 0.25, 0.5, 1 and 24 hours. Rats were administered Compound 1 at 10 mg/kg via a bolus IV injection into the tail vein. Twelve blood samples per rat were collected via a jugular vein cannula into tubes containing the anticoagulant K2EDTA at various timepoints (i.e., 0.033, 0.083, 0.25, 0.5, 1, 2, 4, 6, 8, 10, 12, and 24 hours). Male beagle dogs were administered Compound 1 at 10 mg/kg through a temporary percutaneous catheter placed in a peripheral vein. Whole blood samples (0.5 mL) were collected from each dog prior to dosing and at 0.033, 0.083, 0.25, 0.5, 1, 2, 4, 6, 8, and 24 hours via direct venipuncture of a jugular or cephalic vein into tubes containing the anticoagulant K2EDTA. A sparse sampling method was employed to conserve animals and provide the best data possible from fewer mice. Samples were centrifuged, and plasma was collected and transferred into a new tube and frozen at −80° C. until they were analyzed.
Blood, urine, and kidney samples collected over 24 hours were analyzed for Compound 1 levels using LC-MS/MS. Method performance was acceptable in the concentration ranges necessary to determine plasma levels. Compound 1 plasma concentrations were determined by comparing Compound 1 concentration in the sample to a standard curve derived from LC-MS/MS measurements of the analyte. The standard curve fit was linear with a 1/x^2 weighting.

[2] = tested on: P. aeruginosa (PSA); test: MIC, CLSI broth microdilution, worldwide isolates: P. aeruginosa; assay type: cell-based
Text: (§1) In the first study, a total of 235 isolates were collected from medical centers worldwide and tested for susceptibility to Compound 1 and comparator agents by CLSI broth microdilution methods. […] Non-ENT GN pathogens included WT P. aeruginosa (PSA) and Acinetobacter spp. (ACB), and carbapenem (CARB)-R strains, including those with MBL and OXA enzymes, SA and coagulase-negative staphylococci (CoNS) included oxacillin-susceptible (MSSA/MS-CoNS) and —R (MRSA/MR-CoNS) strains.
(§2) Minimum inhibitory concentrations (MIC) were determined by reference Clinical and Laboratory Standards Institute (CLSI) broth microdilution methods per M7-A7 [2006]. Briefly, serial two-fold dilutions of Compound 1 and comparator AGs (together, “the test compounds”) were prepared at 2× concentration in appropriate diluent. The dilutions were mixed in 96-well assay plates with bacterial inoculum. Bacteria were suspended in sterile saline and added to each assay plate to obtain a final concentration of 5.5×10^5 CFU/mL. The plates were incubated at 35° C. for 20 hours in ambient air. […] After incubation, assay plates were read using a microtiter plate reader at 600 nm.

[3] = tested on: coagulase-negative staphylococci (CoNS); test: MIC, CLSI broth microdilution, worldwide isolates: coagulase-negative staphylococci; assay type: cell-based
Text: as §1, §2

[4] = tested on: E. coli (EC); test: MIC, broth microdilution, Brooklyn hospital isolates: E. coli; assay type: cell-based; conditions: Escherichia coli; EC (n = 32)
Method: In another study, the activity of Compound 1 against a collection of contemporary Gram-negative bacteria was determined. Unique patient isolates of P. aeruginosa (PA), A. baumannii (AB), K. pneumoniae (KP), E. coli (EC), and Enterobacter spp. (EB) from prior surveys at 16 Brooklyn, N.Y. hospitals were selected based on resistance patterns. The majority of isolates were fingerprinted by automated ribotyping. MICs were performed by broth microdilution. PCR was used to identify aminoglycoside-modifying enzymes (AMEs) in AB and KP and the KPC gene in Enterobacteriaceae (EN). The expression of the efflux genes mexA, C, E and X in PA, and adeB in AB was assessed by real-time RT-PCR.

[5] = tested on: cochlear hair cells; test: Cytocochleogram analysis in 28-day guinea pig ototoxicity model; assay type: in vivo, guinea pigs
Method: Following euthanasia and whole body intravascular perfusion with 4% paraformaldehyde, the temporal bones of the left and right ears were removed. Gross middle ear assessments were performed using a dissecting microscope. […] Following gross middle ear assessment, the cochleas of the left ear were fixed by intrascalar perfusion with 4% paraformaldehyde. Cochlea tissues of both ears were placed in 4% paraformaldehyde for approximately 1 hour. Tissues were then transferred to 0.5% paraformaldehyde, stored refrigerated, and shipped on gel packs to the Kresge Hearing Research Institute, Ann Arbor, Mich., for further processing and cytocochleogram analysis.
These guinea pig ototoxicity studies also included microscopic analysis of surgically dissected cochleas from each animal to assess hair cell damage (cytocochleograms). The underlying cause of aminoglycoside related hearing loss is damage to the hair cells of the auditory system after significant accumulation of aminoglycosides in the inner ear. In the cochlea, drug-induced hair cell loss typically progresses from the basal to the apical turns of the cochlea. Perception of high-frequency sounds, a function of the basal hair cells, is lost first; perception of low-frequency sounds, a function of the more apical hair cells, is the last to be lost (Selimoglu, E., Curr Pharm Des. 2007; 13(1):119-26). For obvious reasons, it is impractical to obtain cytocochleograms from each animal prior to dosing, and some hair cell loss is usually observed in control (vehicle dosed) animals in these guinea pig studies. This variability makes it difficult to determine whether hair cell loss observed post-treatment is due to the drug treatment, especially mild hair cell loss, […]

[6] = Pseudomonas aeruginosa, PSA isolates

## CN[C@@H]1[C@@H](O)[C@@H](O[C@@H]2[C@@H](O)[C@H](O[C@H]3OC(CNCCO)=CC[C@H]3N)[C@@H](N)C[C@H]2NC(=O)[C@@H](O)CCN)OC[C@]1(C)O [Compound 1, 6′-(2-Hydroxy-ethyl)-1-(4-amino-2(S)-hydroxy-butyryl)-sisomicin]
[1]; Dog 6001
  % of Cmpd 1 recovered in urine: 134%
[1]; Dog 6002
  % of Cmpd 1 recovered in urine: 135%
[1]; Dog 6003
  % of Cmpd 1 recovered in urine: 87%
[1]; Mean (±SD), 10 mg/kg
  % of Cmpd 1 recovered in urine: 119% and 119 ± 22%
[1]; Dog 6001, Total
  Cmpd 1 urine concentration: 1070 µg/mL
[1]; Dog 6002, Total
  Cmpd 1 urine concentration: 573 µg/mL
[1]; Dog 6003, 6 hr
  Cmpd 1 urine concentration: 1180 µg/mL
[1]; Dog 6003, Total
  Cmpd 1 urine concentration: 1324 µg/mL
[1]; 10 mg/kg, Dog 6001, 6 hr
  concentration at 6 h: 1000 µg/mL
[1]; 10 mg/kg, Dog 6001, 12 hr
  concentration at 12 h: 47 µg/mL
[1]; 10 mg/kg, Dog 6001, 24 hr
  concentration at 24 h: 24 µg/mL
[1]; 10 mg/kg, Dog 6002, 6 hr
  concentration at 6 h: 505 µg/mL
[1]; 10 mg/kg, Dog 6002, 24 hr
  concentration at 24 h: 68 µg/mL
[1]; 10 mg/kg, Dog 6003, 12 hr
  concentration at 12 h: 100 µg/mL
[1]; 10 mg/kg, Dog 6003, 24 hr
  concentration at 24 h: 44 µg/mL
[2]; PSA (30)
  Cumulative % inhibited at Cmpd. MIC 1: 3.3%
  Cumulative % inhibited at Cmpd. MIC 2: 3.3%
  Cumulative % inhibited at Cmpd. MIC 4: 30.0%
  Cumulative % inhibited at Cmpd. MIC 8: 50.0%
  Cumulative % inhibited at Cmpd. MIC 16: 76.7%
  Cumulative % inhibited at Cmpd. MIC 32: 96.7%
  Cumulative % inhibited at Cmpd. MIC 64: 96.7%
  Cumulative % inhibited at Cmpd. MIC >64: 100.0%
  Cumulative % inhibited at Cmpd. MIC ≦0.5: 0.0%
[2]; PSA, CARB-R (20)
  Cumulative % inhibited at Cmpd. MIC 1: 0.0%
  Cumulative % inhibited at Cmpd. MIC 2: 0.0%
  Cumulative % inhibited at Cmpd. MIC 4: 10.0%
  Cumulative % inhibited at Cmpd. MIC 8: 25.0%
  Cumulative % inhibited at Cmpd. MIC 16: 65.0%
  Cumulative % inhibited at Cmpd. MIC 32: 95.0%
  Cumulative % inhibited at Cmpd. MIC 64: 95.0%
  Cumulative % inhibited at Cmpd. MIC >64: 100.0%
  Cumulative % inhibited at Cmpd. MIC ≦0.5: 0.0%
[2]; PSA, WT (10)
  Cumulative % inhibited at Cmpd. MIC 1: 10.0%
  Cumulative % inhibited at Cmpd. MIC 2: 10.0%
  Cumulative % inhibited at Cmpd. MIC 4: 70.0%
  Cumulative % inhibited at Cmpd. MIC 8: 100.0%
  Cumulative % inhibited at Cmpd. MIC ≦0.5: 0.0%
[2]; [6]
  MIC50: 8 µg/mL (≈ 13.5 µM)
  MIC90: 32 µg/mL (≈ 54 µM)
[3]; CONS isolates
  MIC50: ≤ 0.25 µg/mL
  MIC90: ≤ 0.25 µg/mL
[3]; CoNS (20)
  Cumulative % inhibited at Cmpd. MIC ≦0.5: 100.0%
[4]
  MIC50: 1 µg/mL (≈ 1.69 µM)
  MIC90: 2 µg/mL (≈ 3.37 µM)
[5]; guinea pigs, 8 mg/kg
  animals with a few spikes of minimal hair cell loss: 2/8
[5]; guinea pigs, 30 mg/kg
  animals with minimal to moderate outer hair cell loss at the apical end or middle region: 3/8
[5]; guinea pigs, 80 mg/kg
  animals with large loss of outer hair cells across the length of the cochlea: One of 8
  animals with minimal loss of both inner and outer hair cells at the mid-cochlea or apical end: 2/8
[5]; guinea pigs, 8, 30, 80 mg/kg
  dose-response of hair cell loss: no dose-response of hair cell loss
